# Source: PubChem BioAssay (NCI)
#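 Exposure lasted 48 hours, with cells grown in 96-well plates and compounds tested at five concentrations. The concentration for full growth arrest is given as TGI.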
# Tests used:
# Assay in all cases: NCI anticancer screen, dose series, 48 h
# NCI-H23 lung = system: NCI-H23 lung
# NCI-H522 lung = system: NCI-H522 lung
# MDA-N = system: MDA-N
# K-562 leukemia = system: K-562 leukemia
# SK-MEL-2 melanoma = system: SK-MEL-2 melanoma
# NCI-H226 lung = system: NCI-H226 lung
# OVCAR-8 ovarian = system: OVCAR-8 ovarian
# SNB-19 CNS = system: SNB-19 CNS
# LOX IMVI melanoma = system: LOX IMVI melanoma
# OVCAR-4 ovarian = system: OVCAR-4 ovarian
# KM12 colon = system: KM12 colon
# HOP-92 NSCLC = system: HOP-92 NSCLC
# SW-620 colon = system: SW-620 colon
# 786-0 renal = system: 786-0 renal
# SNB-75 CNS = system: SNB-75 CNS
# HT29 colon = system: HT29 colon
# NCI/ADR-RES ovarian = system: NCI/ADR-RES ovarian
# UACC-257 melanoma = system: UACC-257 melanoma
# CCRF-CEM leukemia = system: CCRF-CEM leukemia
# HS 578T breast = system: HS 578T breast
# RXF 393 renal = system: RXF 393 renal
# PC-3 prostate = system: PC-3 prostate
# SF-268 CNS = system: SF-268 CNS
# UACC-62 melanoma = system: UACC-62 melanoma
# IGROV1 ovarian = system: IGROV1 ovarian
# UO-31 renal = system: UO-31 renal
# SK-MEL-5 melanoma = system: SK-MEL-5 melanoma
# U251 CNS = system: U251 CNS
# M14 melanoma = system: M14 melanoma
# NCI-H460 lung = system: NCI-H460 lung
# SF-295 CNS = system: SF-295 CNS
# HOP-62 NSCLC = system: HOP-62 NSCLC
# SF-539 CNS = system: SF-539 CNS
# MOLT-4 leukemia = system: MOLT-4 leukemia
# HL-60(TB) leukemia = system: HL-60(TB) leukemia
# A549 NSCLC = system: A549 NSCLC
# SN12C renal = system: SN12C renal
# MDA-MB-435 = system: MDA-MB-435
# TK-10 renal = system: TK-10 renal
# SK-MEL-28 melanoma = system: SK-MEL-28 melanoma
# OVCAR-3 ovarian = system: OVCAR-3 ovarian
# SK-OV-3 ovarian = system: SK-OV-3 ovarian
# EKVX NSCLC = system: EKVX NSCLC
# HCT-116 colon = system: HCT-116 colon
# HCT-15 colon = system: HCT-15 colon
# MDA-MB-231 breast = system: MDA-MB-231 breast
# DU-145 prostate = system: DU-145 prostate
# BT-549 breast = system: BT-549 breast
# T-47D breast = system: T-47D breast
# ACHN renal = system: ACHN renal
# CAKI-1 renal = system: CAKI-1 renal
# MALME-3M melanoma = system: MALME-3M melanoma
# COLO 205 colon = system: COLO 205 colon
# OVCAR-5 ovarian = system: OVCAR-5 ovarian
# MCF7 breast = system: MCF7 breast
# A498 renal = system: A498 renal
# SR leukemia = system: SR leukemia
# HCC-2998 colon = system: HCC-2998 colon
# RPMI-8226 leukemia = system: RPMI-8226 leukemia
smiles,measurement,setting,value
O=S(=O)(/N=C(\NO)Nc1ccc(Cl)cc1)c1cc2ccccc2o1,TGI,NCI-H23 lung,48 µM
same,TGI,NCI-H522 lung,25.7 µM
same,TGI,MDA-N,59.6 µM
same,TGI,K-562 leukemia,> 100 µM
same,TGI,SK-MEL-2 melanoma,35.9 µM
same,TGI,NCI-H226 lung,71.7 µM
same,TGI,OVCAR-8 ovarian,39.8 µM
same,TGI,SNB-19 CNS,> 100 µM
same,TGI,LOX IMVI melanoma,23.9 µM
same,TGI,OVCAR-4 ovarian,56 µM
same,TGI,KM12 colon,33.5 µM
same,TGI,HOP-92 NSCLC,29 µM
same,TGI,SW-620 colon,65.1 µM
same,TGI,786-0 renal,39.3 µM
same,TGI,SNB-75 CNS,> 100 µM
same,TGI,HT29 colon,47.2 µM
same,TGI,NCI/ADR-RES ovarian,55.1 µM
same,TGI,UACC-257 melanoma,51.7 µM
same,TGI,CCRF-CEM leukemia,57.4 µM
same,TGI,HS 578T breast,52.8 µM
same,TGI,RXF 393 renal,95 µM
same,TGI,PC-3 prostate,69 µM
same,TGI,SF-268 CNS,55.7 µM
same,TGI,UACC-62 melanoma,29.3 µM
same,TGI,IGROV1 ovarian,30.7 µM
same,TGI,UO-31 renal,91.2 µM
same,TGI,SK-MEL-5 melanoma,30.9 µM
same,TGI,U251 CNS,33.4 µM
same,TGI,M14 melanoma,49.6 µM
same,TGI,NCI-H460 lung,> 100 µM
same,TGI,SF-295 CNS,47 µM
same,TGI,HOP-62 NSCLC,83 µM
same,TGI,SF-539 CNS,> 100 µM
same,TGI,MOLT-4 leukemia,> 100 µM
same,TGI,HL-60(TB) leukemia,37.5 µM
same,TGI,A549 NSCLC,> 100 µM
same,TGI,SN12C renal,36.1 µM
same,TGI,MDA-MB-435,29.7 µM
same,TGI,TK-10 renal,> 100 µM
same,TGI,SK-MEL-28 melanoma,35 µM
same,TGI,OVCAR-3 ovarian,28.5 µM
same,TGI,SK-OV-3 ovarian,62.3 µM
same,TGI,EKVX NSCLC,41.9 µM
same,TGI,HCT-116 colon,24.8 µM
same,TGI,HCT-15 colon,34.2 µM
same,TGI,MDA-MB-231 breast,40.9 µM
same,TGI,DU-145 prostate,> 100 µM
same,TGI,BT-549 breast,34.8 µM
same,TGI,T-47D breast,> 100 µM
same,TGI,ACHN renal,46.1 µM
same,TGI,CAKI-1 renal,36.7 µM
same,TGI,MALME-3M melanoma,45.2 µM
same,TGI,COLO 205 colon,51.1 µM
same,TGI,OVCAR-5 ovarian,57.2 µM
COc1cc(C2CC(C)(N3CCCC3)Oc3cc4c(cc32)OCO4)cc(OC)c1OC (stereo not drawn),TGI,NCI-H23 lung,> 49.6 µM
same,TGI,NCI-H522 lung,2.19 µM
same,TGI,MCF7 breast,17.9 µM
same,TGI,MDA-N,0.0552 µM
same,TGI,K-562 leukemia,10.9 µM
same,TGI,SK-MEL-2 melanoma,> 100 µM
same,TGI,NCI-H226 lung,> 82.4 µM
same,TGI,OVCAR-8 ovarian,> 44.7 µM
same,TGI,SNB-19 CNS,> 100 µM
same,TGI,LOX IMVI melanoma,15 µM
same,TGI,OVCAR-4 ovarian,> 100 µM
same,TGI,KM12 colon,> 100 µM
same,TGI,HOP-92 NSCLC,> 100 µM
same,TGI,SW-620 colon,39 µM
same,TGI,786-0 renal,17 µM
same,TGI,HT29 colon,0.492 µM
same,TGI,NCI/ADR-RES ovarian,> 100 µM
same,TGI,UACC-257 melanoma,32.5 µM
same,TGI,CCRF-CEM leukemia,> 100 µM
same,TGI,HS 578T breast,> 100 µM
same,TGI,RXF 393 renal,0.468 µM
same,TGI,PC-3 prostate,3.55 µM
same,TGI,SF-268 CNS,> 87.6 µM
same,TGI,IGROV1 ovarian,> 51.2 µM
same,TGI,A498 renal,6.12 µM
same,TGI,UO-31 renal,> 100 µM
same,TGI,SR leukemia,> 100 µM
same,TGI,U251 CNS,16.4 µM
same,TGI,M14 melanoma,> 100 µM
same,TGI,NCI-H460 lung,3.5 µM
same,TGI,SF-295 CNS,0.0909 µM
same,TGI,HCC-2998 colon,6.14 µM
same,TGI,HOP-62 NSCLC,> 100 µM
same,TGI,SF-539 CNS,0.603 µM
same,TGI,MOLT-4 leukemia,> 49.3 µM
same,TGI,A549 NSCLC,> 100 µM
same,TGI,SN12C renal,43.7 µM
same,TGI,TK-10 renal,> 64 µM
same,TGI,SK-MEL-28 melanoma,73.8 µM
same,TGI,OVCAR-3 ovarian,45 µM
same,TGI,EKVX NSCLC,> 100 µM
same,TGI,HCT-116 colon,> 100 µM
same,TGI,MDA-MB-231 breast,21.9 µM
same,TGI,DU-145 prostate,> 100 µM
same,TGI,BT-549 breast,87.7 µM
same,TGI,T-47D breast,> 100 µM
same,TGI,ACHN renal,> 100 µM
same,TGI,CAKI-1 renal,> 100 µM
same,TGI,MALME-3M melanoma,> 50.7 µM
same,TGI,COLO 205 colon,> 100 µM
same,TGI,OVCAR-5 ovarian,> 100 µM
COC(=O)c1ccccc1C1CN=NC12Cc1c(C)cccc1C2=O (stereo not drawn),TGI,NCI-H23 lung,> 100 µM
same,TGI,NCI-H522 lung,> 100 µM
same,TGI,MCF7 breast,> 100 µM
same,TGI,MDA-N,> 100 µM
same,TGI,K-562 leukemia,> 100 µM
same,TGI,SK-MEL-2 melanoma,> 100 µM
same,TGI,NCI-H226 lung,> 100 µM
same,TGI,OVCAR-8 ovarian,> 100 µM
same,TGI,SNB-19 CNS,> 100 µM
same,TGI,LOX IMVI melanoma,> 100 µM
same,TGI,OVCAR-4 ovarian,> 100 µM
same,TGI,KM12 colon,> 100 µM
same,TGI,HOP-92 NSCLC,> 100 µM
same,TGI,SW-620 colon,> 100 µM
same,TGI,786-0 renal,> 100 µM
same,TGI,SNB-75 CNS,> 100 µM
same,TGI,HT29 colon,> 100 µM
same,TGI,NCI/ADR-RES ovarian,> 100 µM
same,TGI,UACC-257 melanoma,> 100 µM
same,TGI,CCRF-CEM leukemia,> 100 µM
same,TGI,HS 578T breast,> 100 µM
same,TGI,RXF 393 renal,> 100 µM
same,TGI,SF-268 CNS,> 100 µM
same,TGI,UACC-62 melanoma,> 100 µM
same,TGI,IGROV1 ovarian,> 100 µM
same,TGI,A498 renal,> 100 µM
same,TGI,UO-31 renal,> 100 µM
same,TGI,SR leukemia,> 100 µM
same,TGI,SK-MEL-5 melanoma,> 100 µM
same,TGI,U251 CNS,> 100 µM
same,TGI,M14 melanoma,> 100 µM
same,TGI,NCI-H460 lung,> 100 µM
same,TGI,SF-295 CNS,> 100 µM
same,TGI,HCC-2998 colon,> 100 µM
same,TGI,HOP-62 NSCLC,> 100 µM
same,TGI,SF-539 CNS,> 100 µM
same,TGI,MOLT-4 leukemia,> 100 µM
same,TGI,HL-60(TB) leukemia,> 100 µM
same,TGI,A549 NSCLC,> 100 µM
same,TGI,SN12C renal,> 100 µM
same,TGI,MDA-MB-435,> 100 µM
same,TGI,TK-10 renal,> 100 µM
same,TGI,SK-MEL-28 melanoma,> 100 µM
same,TGI,OVCAR-3 ovarian,> 100 µM
same,TGI,SK-OV-3 ovarian,> 100 µM
same,TGI,EKVX NSCLC,> 100 µM
same,TGI,HCT-116 colon,> 100 µM
same,TGI,HCT-15 colon,> 100 µM
same,TGI,RPMI-8226 leukemia,> 100 µM
same,TGI,MDA-MB-231 breast,> 100 µM
same,TGI,DU-145 prostate,> 100 µM
same,TGI,BT-549 breast,> 100 µM
same,TGI,T-47D breast,> 100 µM
same,TGI,ACHN renal,> 100 µM
same,TGI,CAKI-1 renal,> 100 µM
same,TGI,MALME-3M melanoma,> 100 µM
same,TGI,COLO 205 colon,> 100 µM
same,TGI,OVCAR-5 ovarian,> 100 µM
